# In patent US11753407B2, “Compounds for treating spinal muscular atrophy” (PTC Therapeutics, Inc., priority 2012, dated 2023):
# Assays:
# [1] = tested on: Smn protein in SMA patient fibroblast cells (GM03813); assay: Smn protein assay in cultured cells (SMN HTRF); format: cell-based, human; conditions: SMA patient fibroblast cells, 48 hours; for maximum fold (Fold) increase of Smn protein: 7-point concentration data, fold relative to vehicle control; for EC1.5x for Smn protein expression: 7-point concentration curve, SMN HTRF, concentration producing 1.5 times Smn protein vs DMSO vehicle control
# Procedure, shortened: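 Fibroblasts, SMA patient; 5,000 cells/well; 7-pt curve, 3.16-fold serial dilution; 48 h, 37 °C, 5% CO2; RIPA lysis 1 h RT; anti-SMN d2 + kryptate overnight RT; HTRF 665/620 nm; fold vs DMSO; EC1.5×, max fold.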
# [2] = tested on: SMN2 minigene mRNA (SMN2-A minigene) in HEK293H cells; assay: SMN2 minigene mRNA splicing RT-qPCR assay in cultured cells; format: cell-based, human; conditions: Homo sapiens, HEK293-H; concentration increasing full length SMN2 mRNA 1.5-fold relative to vehicle-treated cells; HEK293H cells with SMN2-A minigene, 24 hours, 7-point concentration data; read-out: EC1.5x for production of full length SMN2 mRNA
# Procedure, shortened: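 Stable SMN2-A minigene HEK293H; cpd 7-pt 3.16-fold series, 200× in DMSO, 24 h, 37 °C, n=2. Lysates → multiplex RT-qPCR (minigene FL + GAPDH), efficiency-corrected ΔΔCt vs vehicle. EC1.5× = 1.5-fold FL mRNA gain.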
melting point [°C],SMILES,maximum fold (Fold) increase of Smn protein [1],EC (1.5-fold increase) [2] [µM],EC1.5x for Smn protein expression [1]
220 to 223,"Cc1cn2nc(-c3cc(=O)n4cc(N5CCN(C)[C@@H](C)C5)ccc4n3)cc2c(C)n1 [Compound 258, 7-[(3S)-3,4-dimethylpiperazin-1-yl]-2-(4,6-dimethylpyrazolo[1,5-a]pyrazin-2-yl)-4H-pyrido[1,2-a]pyrimidin-4-one]",**** (a fold increase between >1.5 and ≤1.65 is indicated by four stars (****)),< 0.1,*** (an EC1.5× between >0.3 μM and ≤1 μM is indicated by three stars (***))
254 to 260,"Cc1cn2nc(-c3cc(=O)n4cc(N5C[C@@H](C)N(C)[C@@H](C)C5)ccc4n3)cc2c(C)n1 [Compound 259, 2-(4,6-dimethylpyrazolo[1,5-a]pyrazin-2-yl)-7-[(3R,5S)-3,4,5-trimethylpiperazin-1-yl]-4H-pyrido[1,2-a]pyrimidin-4-one]",**** (a fold increase between >1.5 and ≤1.65 is indicated by four stars (****)),< 0.1,*** (an EC1.5× between >0.3 μM and ≤1 μM is indicated by three stars (***))
212 to 218,"COc1ccc(-c2cc(=O)n3cc(N4C[C@H]5CN(C)C[C@H]5C4)cc(C)c3n2)cc1OC [Compound 260, 2-(3,4-dimethoxyphenyl)-9-methyl-7-[(3aR,6aS)-5-methylhexahydropyrrolo[3,4-c]pyrrol-2(1H)-yl]-4H-pyrido[1,2-a]pyrimidin-4-one]",*** (a fold increase between >1.35 and ≤1.5 is indicated by three stars (***)),0.1 to 0.3,** (an EC1.5× between >1 μM and ≤3 μM is indicated by two stars (**))
167 to 171,"COc1ccc(-c2cc(=O)n3cc(N4CCC(N(C)C)CC4)cc(C)c3n2)cc1OC [Compound 261, 2-(3,4-dimethoxyphenyl)-7-[4-(dimethylamino)piperidin-1-yl]-9-methyl-4H-pyrido[1,2-a]pyrimidin-4-one]",**** (a fold increase between >1.5 and ≤1.65 is indicated by four stars (****)),< 0.1,**** (an EC1.5x≤0.3 μM is indicated by four stars (****))

# The remaining lines, values behind:
SMILES,melting point [°C],maximum fold (Fold) increase of Smn protein [1],EC (1.5-fold increase) [2] [µM],EC1.5x for Smn protein expression [1]
"Cc1nc2ccc(-c3cc(=O)n4cc(N5CCN6CCC[C@H]6C5)ccc4n3)cc2s1 [Compound 255, 7-[(8aS)-hexahydropyrrolo[1,2-a]pyrazin-2(1H)-yl]-2-(2-methyl-1,3-benzothiazol-6-yl)-4H-pyrido[1,2-a]pyrimidin-4-one]",250 to 260,** (a fold increase between >1.2 and ≤1.35 is indicated by two stars (**)),0.3 to 1,
"Cc1nc2ccc(-c3cc(=O)n4cc(N5CCN(C)CC5)ccc4n3)cc2s1 [Compound 256, 2-(2-methyl-1,3-benzothiazol-6-yl)-7-(4-methylpiperazin-1-yl)-4H-pyrido[1,2-a]pyrimidin-4-one]",230 to 234,**** (a fold increase between >1.5 and ≤1.65 is indicated by four stars (****)),0.3 to 1,** (an EC1.5× between >1 μM and ≤3 μM is indicated by two stars (**))
"COc1ccc(-c2cc(=O)n3cc(N4C[C@H]5CNC[C@H]5C4)cc(C)c3n2)cc1OC [Compound 257, 2-(3,4-dimethoxyphenyl)-7-[(3aR,6aS)-hexahydropyrrolo[3,4-c]pyrrol-2(1H)-yl]-9-methyl-4H-pyrido[1,2-a]pyrimidin-4-one]",215,**** (a fold increase between >1.5 and ≤1.65 is indicated by four stars (****)),< 0.1,** (an EC1.5× between >1 μM and ≤3 μM is indicated by two stars (**))
